These are literature values, as cited in article PMC8969080 (Dalton transactions (Cambridge, England : 2003), 2022).

For this data set the following is noted: 1:1 Metal/Ligand, 50 μM.

Like-named read-outs stand apart in the source and are kept apart here.

Consider `O=C(O)CN(CCN(CC(=O)O)CC(=O)O)CCN(CC(=O)O)CC(=O)O` [DTPA, diethylenetriaminepentaacetic acid], for which the “Calculated pM (−log[M]free; M = Cu^2+)” value runs as follows: (pH 6.6) 9.7; (pH 7.4) 10.7.
